Calls of active or inactive are those of the source. No cut-off for these calls is given here.
Legend:
[1] = molecular target: Trace amine-associated receptor 1 (Mus musculus) (UniProt Q923Y8); test: Agonist activity at mouse TAAR1 expressed in HEK293T cells assessed as induction of cAMP production by BRET assay relative to control; format: functional, cell-based; conditions: filed as agonist
[2] = molecular target: Trace amine-associated receptor 1 (Mus musculus, UniProt Q923Y8); test: Agonist activity at mouse TAAR1 expressed in HEK293T cells assessed as induction of cAMP production by BRET assay; format: functional, cell-based
Mus musculus = test: Increase in plasma glycaemia in CD1 mouse at 4.0 ug/kg, ip measured after 15 mins; format: functional, organism-based
HepG2 [3] = test: Increase in glucose production in human HepG2 cells at incubated for 4 hrs by colorimetric glucose assay; format: functional, cell-based
HepG2 [4] = test: Inhibition of glucose production in human HepG2 cells at 10 uM incubated for 4 hrs by colorimetric glucose assay; format: functional, cell-based
HepG2 [5] = test: Increase in glucose production in human HepG2 cells at 0.1 to 1 uM incubated for 4 hrs by colorimetric glucose assay; format: functional, cell-based; conditions: dose 0.1-1 µM
HepG2 [6] = test: Hyperglycemic activity in human HepG2 cells incubated for 4 hrs by colorimetric glucose assay; format: functional, cell-based; conditions: HepG2, 4 h

Sequence of Trace amine-associated receptor 1 (Q923Y8 whole entry): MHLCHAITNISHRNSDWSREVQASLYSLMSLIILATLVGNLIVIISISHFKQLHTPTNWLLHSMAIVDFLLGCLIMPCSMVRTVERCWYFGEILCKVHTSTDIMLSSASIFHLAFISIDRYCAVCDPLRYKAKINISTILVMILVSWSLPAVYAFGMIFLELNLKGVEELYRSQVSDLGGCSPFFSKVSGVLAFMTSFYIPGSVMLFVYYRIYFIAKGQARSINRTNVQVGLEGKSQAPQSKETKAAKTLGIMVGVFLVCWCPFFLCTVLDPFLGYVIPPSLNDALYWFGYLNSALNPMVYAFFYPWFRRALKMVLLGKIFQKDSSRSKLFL
Sequence of Trace amine-associated receptor 1 (Mus musculus) (Q923Y8 whole entry): as above

| SMILES | Efficacy [1] | EC50 [2] | also measured |
| --- | --- | --- | --- |
| CCNc1ccc(Cc2ccc(CCN)cc2C)cc1C(C)C | 100% | 102 nM | – |
| Cc1cc(CCN)ccc1Cc1ccc(N)cc1 | 100% | 119 nM | Activity (Mus musculus): Active; Activity (HepG2 [3]): Dose-dependent effect |
| Cc1cc(CCN)cc(C)c1Cc1ccc(N)cc1 | 100% | 158 nM | – |
| CC(=O)Nc1ccc(Cc2ccc(CCN)cc2C)cc1 | 100% | 3100 nM | – |
| CCN(C(C)=O)c1ccc(Cc2ccc(CCNC(C)=O)cc2C)cc1C(C)C | 100% | > 10000 nM | – |
| Cc1cc(OCCN)cc(C)c1Cc1ccc(N)cc1 | 100% | 134 nM | – |
| Cc1cc(CCN)ccc1-c1ccc(N)cc1 | 100% | 1180 nM | – |
| Cc1cc(CCN)ccc1Cc1ccc(O)cc1 | 100% | 98 nM | Activity (Mus musculus): Active; inhibition (HepG2 [4]): Active; Activity (HepG2 [5]): Active |
| CCN(C(C)=O)c1ccc(Cc2ccc(CCN)cc2C)cc1C(C)C | 100% | 440 nM | – |
| Cc1cc(CCN)cc(C)c1-c1ccc(N)cc1 | 100% | 633 nM | – |
| CC(=O)Nc1ccc(Cc2ccc(OCCN)cc2C)cc1 | – | > 10000 nM | – |
| NCCc1ccc(Oc2ccc(O)cc2)c(I)c1 | – | – | EC50 (HepG2 [6]): 840 nM |
| CC(=O)NCCOc1ccc(Cc2ccc(NC(C)=O)cc2)c(C)c1 | – | > 10000 nM | – |
| CC(=O)Nc1ccc(Cc2ccc(OCCNC(=N)NC(=N)N)cc2C)cc1 | – | > 10000 nM | – |
| Cc1cc(OCCNC(=N)NC(=N)N)ccc1Cc1ccc(N)cc1 | – | > 10000 nM | – |
| CC(=O)NCCOc1ccc(Cc2ccc(NC(C)=O)cc2)cc1 | – | > 10000 nM | – |
| CC(=O)Nc1ccc(Cc2ccc(OCCN)cc2)cc1 | – | > 10000 nM | – |

From ChEMBL document CHEMBL4715788, “Hit-to-Lead Optimization of Mouse Trace Amine Associated Receptor 1 (mTAAR1) Agonists with a Diphenylmethane-Scaffold: Design, Synthesis, and Biological Study” (J Med Chem, 2016)
